In ChEMBL document CHEMBL6103548, “Recent advances in screening methods enabling the discovery of novel anti-hepatitis B virus drug candidates” (Eur J Med Chem, 2025):
One block for each molecule: values may come before it.

What was measured:
[1] = Cytotoxicity against human HepDE19 cells; assay type: toxicity, cell-based
[2] = Antiviral activity against HBV infected in SRluc-HBc6 cells; assay type: functional, cell-based; details: Hepatitis B virus
[3] = Cytotoxicity against SRluc-HBc6 cells (unknown origin); assay type: functional
[4] = Cytotoxicity against human HePAD38 cells assessed as reduction in cell viability by XTT assay; assay type: functional
Hepatitis B virus [5] = assay: Antiviral activity against Hepatitis B virus infected in human HePAD38 cells assessed as inhibition of viral DNA replication by qPCR analysis; assay type: functional, organism-based
Hepatitis B virus [6] = assay: Antiviral activity against Hepatitis B virus infected in HepDE19 cells assessed as inhibition of viral replication; assay type: functional, organism-based
Hepatitis B virus [7] = assay: Antiviral activity against HBV infected in human HePAD38 cells assessed as reduction in intracellular core HBV DNA replication by Southern blot analysis; assay type: functional, organism-based
[8] = Cytotoxicity against human HePAD38 cells assessed as reduction in cell viability incubated for 72 hrs by MTT assay; assay type: functional
HepG2 [9] = assay: Cytotoxicity against human HepG2 cells by XTT assay; assay type: functional
Hepatitis B virus [10] = assay: Antiviral activity against Hepatitis B virus assessed as inhibition of HbeAg level
Hepatitis B virus [11] = assay: Antiviral activity against Hepatitis B virus assessed as inhibition of HbsAg level
Hepatitis B virus [12] = assay: Antiviral activity against HBV infected in human HepG2 cells assessed as reduction in viral DNA replication; assay type: functional, organism-based
HepG2 [13] = assay: Cytotoxicity against human HepG2 cells assessed as reduction in cell viability incubated for 24 hrs by CCK-8 assay; assay type: functional
HepG2 [14] = assay: Cytotoxicity against human HepG2 cells assessed as reduction in cell growth; assay type: functional
Hepatitis B virus [15] = assay: Antiviral activity against HBV infected in human HepG2-hNTCP cells assessed as inhibition of HBsAg formation; assay type: functional, organism-based

SMILES: Cc1nc2cc(NC(=O)c3ccc(S(=O)(=O)N(C)Cc4ccccc4)cc3)ccc2s1
CC50 [1]: 2.57 µM

SMILES: O=C(CN(c1cc(C(F)(F)F)ccc1Cl)S(=O)(=O)c1ccccc1)NCc1ccncc1
CC50 [1]: > 50 µM

SMILES: CC1=C[C@@H]2C(=O)[C@]3(C=C(C)[C@H](O)[C@@]3(O)[C@@H]1O)[C@H](C)C[C@@H]1[C@H]2C1(C)C
EC50 [2]: 8.9 µM | CC50 [3]: > 100 µM

SMILES: Cc1c(C(=O)Nc2ccccc2)sc(N)c1C(N)=O
CC50 [4]: > 300 µM | EC50 (Hepatitis B virus [5]): 3.6 µM

SMILES: NC(=O)c1ccc(N)nc1 [6-AMINONICOTINAMIDE]
EC50 (Hepatitis B virus [7]): 23.9 µM | CC50 [8]: > 500 µM

SMILES: CC(=O)Oc1ccccc1C(=O)Nc1ncc([N+](=O)[O-])s1 [NITAZOXANIDE]
EC50 (Hepatitis B virus [12]): < 10 µM | CC50 (HepG2 [13]): 57 µM

More lines, main results first:

EC50 (Hepatitis B virus [6]): 0.1 µM
SMILES: O=C(O)C1CC(OCCOc2ccc(-c3cc(=O)c4cccc(Cl)c4o3)cc2)C1 (configuration not stated)
CC50 [1]: 0.2 µM

EC50 (Hepatitis B virus [5]): 0.88 µM
SMILES: Cc1cc(C2CCCCC2)n(O)c(=O)c1 [CICLOPIROX]
CC50 (HepG2 [9]): > 10 µM

IC50 (Hepatitis B virus [10]): 0.311 µM | IC50 (Hepatitis B virus [11]): 0.372 µM
SMILES: C/C=C/C[C@@H](C)[C@@H](O)[C@H]1C(=O)N[C@@H](CC)C(=O)N(C)CC(=O)N(C)[C@@H](CC(C)C)C(=O)N[C@@H](C(C)C)C(=O)N(C)[C@@H](CC(C)C)C(=O)N[C@@H](C)C(=O)N[C@H](C)C(=O)N(C)[C@@H](CC(C)C)C(=O)N(C)[C@@H](CC(C)C)C(=O)N(C)[C@@H](C(C)C)C(=O)N1C [CYCLOSPORINE]

EC50 (Hepatitis B virus [12]): 100 µM
SMILES: O=c1oc2ccccc2c(O)c1Cc1c(O)c2ccccc2oc1=O [DICUMAROL]
CC50 (HepG2 [13]): > 800 µM

EC50 (Hepatitis B virus [15]): 35 µM
SMILES: CCCCC1=NC2(CCCC2)C(=O)N1Cc1ccc(-c2ccccc2-c2nnn[nH]2)cc1 [IRBESARTAN]
CC50 (HepG2 [14]): 287 µM

EC50 [2]: 2.3 µM
SMILES: CCOC(=O)c1c(CSc2ccccc2)n(C)c2cc(Br)c(O)c(CN(C)C)c12 [UMIFENOVIR]
CC50 [3]: 58.4 µM
